Measurements from patent US11254686B1 (Corvus Pharmaceuticals, Inc., priority 2017, dated 2022).

Columns and labels:
[1] = Liver microsome (LM) intrinsic clearance, rat; type: in vitro ADME
[2] = target: CYP2D6 (Homo sapiens (Human), UniProt P10635); assay: CYP450 inhibition at 10 μM, CYP2D6; type: in vitro ADME; conditions: read-out: CYP 450 % INH @ 10 μM
[3] = Hepatocyte (Hep) intrinsic clearance, rat; type: in vitro ADME; conditions: hepatocytes
[4] = Hepatocyte (Hep) intrinsic clearance, human; type: in vitro ADME; conditions: hepatocytes
[5] = target: adenosine A2B receptor (Homo sapiens (Human), UniProt P29275); assay: Adenosine receptor activity assay (Table 1), A2B activity; type: biochemical; conditions: for Ratio: A2A activity to A2B activity (A2A/A2B); for IC50: read-out: Ave A2B cAMP IC50
[6] = target: T1, adenosine A3 receptor (Homo sapiens (Human), UniProt P0DMS8); assay: A3 cAMP IC50 assay (Table 1); type: biochemical
[7] = target: T2, adenosine A1 receptor (Homo sapiens (Human), UniProt P30542); assay: A1 cAMP IC50 assay (Table 1); type: biochemical
[8] = Liver microsome (LM) intrinsic clearance, human; type: in vitro ADME
[9] = target: adenosine A2A receptor (Homo sapiens (Human), UniProt P29274); assay: Adenosine receptor activity assay (Table 1), A2A activity; type: biochemical; conditions: read-out: Ave A2A cAMP IC50
[10] = target: CYP3A4 (Homo sapiens (Human), UniProt P08684); assay: CYP450 inhibition at 10 μM, CYP3A4; type: in vitro ADME; conditions: human, 10 μM, read-out: CYP 450 % INH @ 10 μM
[11] = target: T2, adenosine A1 receptor; assay: Adenosine receptor activity assay (Table 1), A1 cAMP; type: cell-based
[12] = target: T1, adenosine A3 receptor; assay: Adenosine receptor activity assay (Table 1), A3 cAMP; type: cell-based
[13] = Hepatocyte intrinsic clearance, rat; type: in vitro ADME; conditions: hepatocytes
[14] = Hepatocyte intrinsic clearance, human; type: in vitro ADME; conditions: hepatocytes

CYP3A4, sequence (P08684 whole entry): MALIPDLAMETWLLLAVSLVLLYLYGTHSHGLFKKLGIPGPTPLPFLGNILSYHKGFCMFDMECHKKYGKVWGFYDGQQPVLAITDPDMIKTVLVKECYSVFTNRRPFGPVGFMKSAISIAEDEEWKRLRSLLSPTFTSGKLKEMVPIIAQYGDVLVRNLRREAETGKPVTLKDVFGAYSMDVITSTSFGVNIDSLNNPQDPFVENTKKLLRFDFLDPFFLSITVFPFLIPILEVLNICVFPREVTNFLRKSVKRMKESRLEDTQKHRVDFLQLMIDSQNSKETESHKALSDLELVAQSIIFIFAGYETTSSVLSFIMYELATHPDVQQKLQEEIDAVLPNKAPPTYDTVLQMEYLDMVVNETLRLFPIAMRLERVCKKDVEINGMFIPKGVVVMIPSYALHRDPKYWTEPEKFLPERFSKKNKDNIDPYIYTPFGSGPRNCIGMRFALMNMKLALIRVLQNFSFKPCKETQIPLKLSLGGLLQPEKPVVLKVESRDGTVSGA
CYP2D6, sequence (P10635 whole entry): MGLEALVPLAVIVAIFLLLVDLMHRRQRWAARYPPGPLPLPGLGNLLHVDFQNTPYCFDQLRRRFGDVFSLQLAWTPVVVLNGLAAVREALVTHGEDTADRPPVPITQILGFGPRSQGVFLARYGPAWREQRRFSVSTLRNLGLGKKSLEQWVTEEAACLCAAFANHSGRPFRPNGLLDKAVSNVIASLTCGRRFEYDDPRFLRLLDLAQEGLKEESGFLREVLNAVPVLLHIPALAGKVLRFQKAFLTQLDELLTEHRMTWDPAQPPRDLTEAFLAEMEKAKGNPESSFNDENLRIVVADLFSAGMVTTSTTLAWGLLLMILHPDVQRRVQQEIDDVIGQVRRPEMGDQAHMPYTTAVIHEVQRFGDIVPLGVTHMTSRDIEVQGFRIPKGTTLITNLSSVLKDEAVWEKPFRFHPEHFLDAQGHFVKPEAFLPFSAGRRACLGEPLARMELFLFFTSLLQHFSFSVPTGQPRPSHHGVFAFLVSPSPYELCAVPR
T1 sequence (P0DMS8 whole entry): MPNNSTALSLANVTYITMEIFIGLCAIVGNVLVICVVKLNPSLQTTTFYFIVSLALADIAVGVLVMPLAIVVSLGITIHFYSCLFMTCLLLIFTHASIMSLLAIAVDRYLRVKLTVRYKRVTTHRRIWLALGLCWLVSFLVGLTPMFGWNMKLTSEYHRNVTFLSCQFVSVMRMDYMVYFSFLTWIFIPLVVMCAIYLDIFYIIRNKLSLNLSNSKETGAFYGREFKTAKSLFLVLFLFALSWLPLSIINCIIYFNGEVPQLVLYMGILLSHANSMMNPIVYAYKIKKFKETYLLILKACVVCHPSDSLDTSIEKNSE
adenosine A2A receptor, sequence (P29274 whole entry): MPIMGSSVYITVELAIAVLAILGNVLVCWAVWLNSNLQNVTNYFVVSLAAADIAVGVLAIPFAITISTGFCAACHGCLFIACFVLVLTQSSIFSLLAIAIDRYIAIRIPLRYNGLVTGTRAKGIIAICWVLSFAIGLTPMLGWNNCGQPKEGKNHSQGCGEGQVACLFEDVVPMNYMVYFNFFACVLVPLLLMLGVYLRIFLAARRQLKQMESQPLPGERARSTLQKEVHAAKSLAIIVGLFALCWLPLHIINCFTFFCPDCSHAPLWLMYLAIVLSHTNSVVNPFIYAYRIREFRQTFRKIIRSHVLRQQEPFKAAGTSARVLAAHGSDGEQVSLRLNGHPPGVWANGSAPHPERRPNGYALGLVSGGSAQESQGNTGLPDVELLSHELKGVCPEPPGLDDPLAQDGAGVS
adenosine A2B receptor, sequence (P29275 whole entry): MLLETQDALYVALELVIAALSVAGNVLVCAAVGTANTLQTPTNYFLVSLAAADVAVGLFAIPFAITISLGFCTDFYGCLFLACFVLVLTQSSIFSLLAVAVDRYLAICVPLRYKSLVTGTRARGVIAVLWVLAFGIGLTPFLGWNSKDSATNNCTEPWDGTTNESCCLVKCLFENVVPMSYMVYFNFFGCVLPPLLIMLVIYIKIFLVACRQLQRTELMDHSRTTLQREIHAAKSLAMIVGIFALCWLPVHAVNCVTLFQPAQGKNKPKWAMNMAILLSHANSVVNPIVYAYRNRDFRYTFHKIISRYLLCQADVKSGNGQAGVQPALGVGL
T2 sequence (P30542 whole entry): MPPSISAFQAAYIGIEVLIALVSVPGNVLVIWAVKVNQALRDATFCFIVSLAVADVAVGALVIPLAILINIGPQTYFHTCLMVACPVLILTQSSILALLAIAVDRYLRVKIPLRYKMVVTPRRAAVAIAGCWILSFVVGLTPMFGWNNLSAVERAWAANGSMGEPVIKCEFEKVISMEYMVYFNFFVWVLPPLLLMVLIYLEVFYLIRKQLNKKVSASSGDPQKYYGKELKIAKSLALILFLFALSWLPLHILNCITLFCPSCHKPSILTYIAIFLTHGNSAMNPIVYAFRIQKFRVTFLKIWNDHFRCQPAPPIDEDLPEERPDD

SMILES	LM CLint [1] [μL/min/mg/protein]	inhibition at 10 µM [2] [%]	hepatocyte CLint [3] [µL/min/1e6 cells]	hepatocyte CLint [4] [µL/min/1e6 cells]	Ratio [5]	IC50 [5] [µM]	IC50 [6] [µM]	IC50 [7] [µM]	LM CLint [8] [μL/min/mg/protein]	IC50 [9] [µM]	inhibition at 10 µM [10] [%]	IC50 [11] [µM]	IC50 [12] [µM]	hepatocyte CLint [13] [µL/min/1e6 cells]	hepatocyte CLint [14] [µL/min/1e6 cells]
C[C@H](Nc1nc(C(=O)N2CC(F)(F)C2)c2sccc2n1)c1cccnc1 [Example Z32, (S)-(3,3-Difluoroazetidin-1-yl)(2-((1-(pyridin-3-yl)ethyl)amino)thieno[3,2-d]pyrimidin-4-yl)methanone]	33.25	7	76.2	63.2	6.64	0.01 to 0.05	> 0.5	> 0.5	51.28	0.1 to 0.5	49	–	–	–	–
C[C@@H]1CCN(C(=O)c2nc(N[C@@H](C)c3cccnc3)nc3ccsc23)C1 [Example Z34, ((R)-3-Methylpyrrolidin-1-yl)(2-(((S)-1-(pyridin-3-yl)ethyl)amino)thieno[3,2-d]pyrimidin-4-yl)methanone]	81.23	22	131	23.5	4.99	0.01 to 0.05	> 0.5	> 0.5	53.26	0.1 to 0.5	82	–	–	–	–
C[C@H](NC(=O)c1nc(N[C@@H](C)c2ccccn2)nc2ccsc12)c1ccccn1 [Example Z54, N—((S)-1-(Pyridin-2-yl)ethyl)-2-(((S)-1-(pyridin-2-yl)ethyl)amino)thieno[3,2-d]pyrimidine-4-carboxamide]	39.84	3	126	24.9	1.42	0.01 to 0.05	0.05 to 0.1	> 0.5	14.10	0.01 to 0.05	38	–	–	–	–
Cc1cncc(CNc2nc(C(=O)N3CCC3)c3sccc3n2)c1 [Example Z55, Azetidin-1-yl(2-(((5-methylpyridin-3-yl)methyl)amino)thieno[3,2-d]pyrimidin-4-yl)methanone]	94.74	19	64.7	25.6	127.22	0.01 to 0.05	> 0.5	> 0.5	63.74	> 0.5	76	–	–	–	–
O=C(c1nc(NCc2cncc(F)c2)nc2ccsc12)N1CC[C@@H](F)C1 [Example Z60, (R)-(2-(((5-Fluoropyridin-3-yl)methyl)amino)thieno[3,2-d]pyrimidin-4-yl)(3-fluoropyrrolidin-1-yl)methanone]	46.03	11	63.1	22.8	66.23	< 0.01	> 0.5	> 0.5	34.26	0.1 to 0.5	65	–	–	–	–
O=C(c1nc(NCc2cncc(F)c2)nc2ccsc12)N1CCC1 [Example Z61, Azetidin-1-yl(2-(((5-fluoropyridin-3-yl)methyl)amino)thieno[3,2-d]pyrimidin-4-yl)methanone]	44.58	10	44.9	15.4	84.42	< 0.01	> 0.5	> 0.5	33.16	0.1 to 0.5	38	–	–	–	–
O=C(c1nc(NCc2cncc(F)c2)nc2ccsc12)N1CC[C@H](O)C1 [Example Z62, (S)-(2-(((5-Fluoropyridin-3-yl)methyl)amino)thieno[3,2-d]pyrimidin-4-yl)(3-hydroxypyrrolidin-1-yl)methanone]	12.51	5	25.6	7.12	60.76	0.01 to 0.05	> 0.5	> 0.5	10.76	> 0.5	34	–	–	–	–
C[C@H]1CCN(C(=O)c2nc(N[C@@H](C)c3cccnc3)nc3ccsc23)C1 [Example Z63, ((S)-3-Methylpyrrolidin-1-yl)(2-(((S)-1-(pyridin-3-yl)ethyl)amino)thieno[3,2-d]pyrimidin-4-yl)methanone]	71.55	39	65.9	24.5	12.78	0.01 to 0.05	> 0.5	> 0.5	47.64	0.1 to 0.5	83	–	–	–	–
Cc1cc2nc(N[C@@H](C)c3cncc(F)c3)nc(C(=O)N3CC[C@H](O)C3)c2s1 [Example Z249, (2-(((S)-1-(5-Fluoropyridin-3-yl)ethyl)amino)-6-methylthieno[3,2-d]pyrimidin-4-yl)((S)-3-hydroxypyrrolidin-1-yl)methanone]	–	–	–	–	197.12	< 0.01	–	–	–	0.1 to 0.5	–	> 0.5	> 0.5	20.9	4.53
Cc1cc2nc(N[C@@H](C)c3cncc(F)c3)nc(C(=O)N3CC[C@@H](O)C3)c2s1 [Example Z250, (2-(((S)-1-(5-Fluoropyridin-3-yl)ethyl)amino)-6-methylthieno[3,2-d]pyrimidin-4-yl)((R)-3-hydroxypyrrolidin-1-yl)methanone]	–	–	–	–	179.59	< 0.01	–	–	–	0.1 to 0.5	–	> 0.5	> 0.5	23.9	11.9
Cc1cc2nc(N[C@@H](C)c3cncc(F)c3)nc(C(=O)N3CC(O)C3)c2s1 [Example Z267, (S)-(2-((1-(5-Fluoropyridin-3-yl)ethyl)amino)-6-methylthieno[3,2-d]pyrimidin-4-yl)(3-hydroxyazetidin-1-yl)methanone]	–	–	–	–	105.81	< 0.01	–	–	–	0.05 to 0.1	–	0.05 to 0.1	0.05 to 0.1	45.9	9.44
Cc1cc2nc(N[C@@H](C)c3cncc(F)c3)nc(C(=O)NC[C@H](C)O)c2s1 [Example Z277, 2-(((S)-1-(5-Fluoropyridin-3-yl)ethyl)amino)-N—((S)-2-hydroxypropyl)-6-methylthieno[3,2-d]pyrimidine-4-carboxamide]	–	–	–	–	167.29	< 0.01	–	–	–	0.1 to 0.5	–	0.05 to 0.1	0.05 to 0.1	65.9	16.4
Cc1cc2nc(N[C@@H](C)c3cncc(F)c3)nc(C(=O)NC[C@@H](C)O)c2s1 [Example Z278, 2-(((S)-1-(5-Fluoropyridin-3-yl)ethyl)amino)-N—((R)-2-hydroxypropyl)-6-methylthieno[3,2-d]pyrimidine-4-carboxamide]	–	–	–	–	87.33	< 0.01	–	–	–	0.05 to 0.1	–	0.05 to 0.1	0.05 to 0.1	43.3	14.8
Cc1cc2nc(N[C@@H](C)c3cccnc3)nc(C(=O)N3CC[C@@H](O)C3)c2s1 [Example Z281, ((R)-3-Hydroxypyrrolidin-1-yl)(6-methyl-2-(((S)-1-(pyridin-3-yl)ethyl)amino)thieno[3,2-d]pyrimidin-4-yl)methanone]	–	–	–	–	88.64	0.01 to 0.05	–	–	–	> 0.5	–	> 0.5	> 0.5	18.6	5.45
Cc1cc2nc(N[C@@H](C)c3cccnc3)nc(C(=O)N3CC[C@H](O)C3)c2s1 [Example Z297, ((S)-3-Hydroxypyrrolidin-1-yl)(6-methyl-2-(((S)-1-(pyridin-3-yl)ethyl)amino)thieno[3,2-d]pyrimidin-4-yl)methanone]	–	–	–	–	227.82	< 0.01	–	–	–	> 0.5	–	> 0.5	> 0.5	22.6	3.47
C[C@H](Nc1nc(C(=O)N2CC[C@H](O)C2)c2sc(C(F)(F)F)cc2n1)c1cccnc1 [Example Z333, ((S)-3-Hydroxypyrrolidin-1-yl)(2-(((S)-1-(pyridin-3-yl)ethyl)amino)-6-(trifluoromethyl)thieno[3,2-d]pyrimidin-4-yl)methanone]	–	–	–	–	146.28	0.01 to 0.05	–	–	–	> 0.5	–	> 0.5	> 0.5	25.7	19.5
